Row | SMILES | melting point
1 | Cc1cc(-c2ccc(C(F)(F)F)cc2)cc(-c2cccc(-c3cccc(S(=O)(=O)NCc4ccc(F)cc4)c3)n2)n1 [Example 433, N-(4-Fluoro-benzyl)-3-[6′-methyl-4′-(4-trifluoromethyl-phenyl)-[2,2′]bipyridinyl-6-yl]-benzenesulfonamide] | 175 °C
2 | Cc1cc(-c2ccc(C(F)(F)F)cc2)cc(-c2cccc(-c3cccc(S(=O)(=O)N4CCC(Oc5ncccn5)CC4)c3)n2)n1 [Example 435, 6-Methyl-6′-{3-[4-(pyrimidin-2-yloxy)-piperidine-1-sulfonyl]-phenyl}-4-(4-trifluoromethyl-phenyl)-[2,2′]bipyridinyl] | 134 °C (dec.)
3 | Cc1cc(-c2ccc(OC(F)(F)F)cc2)cc(-c2cccc(-c3cccc(S(=O)(=O)NC(C)(C)C)c3)n2)n1 [Example 436, N-tert-Butyl-3-[6′-methyl-4′-(4-trifluoromethoxy-phenyl)-[2,2′]bipyridinyl-6-yl]-benzenesulfonamide] | 148 °C
4 | Cc1cc(-c2ccc(OC(F)(F)F)cc2)cc(-c2cccc(-c3cccc(S(N)(=O)=O)c3)n2)n1 [Example 437, 3-[6′-Methyl-4′-(4-trifluoromethoxy-phenyl)-[2,2′]bipyridinyl-6-yl]-benzenesulfonamide] | 231 °C (dec.)
5 | Cc1cc(-c2ccc(C(F)(F)F)c(C)c2)cc(-c2cccc(-c3cccc(S(=O)(=O)NC(C)(C)C)c3)n2)n1 [Example 438, N-tert-Butyl-3-[6′-methyl-4′-(3-methyl-4-trifluoromethyl-phenyl)-[2,2′]bipyridinyl-6-yl]-benzenesulfonamide] | 150 °C (dec.)
6 | NS(=O)(=O)c1cccc(-c2cccc(-c3cc(-c4ccc(C(F)(F)F)cc4)cc(CO)n3)n2)c1 [Example 439, 3-[6′-Hydroxymethyl-4′-(4-trifluoromethyl-phenyl)-[2,2′]bipyridinyl-6-yl]-benzenesulfonamide] | 213 °C (dec.)
7 | Cc1cc(-c2ccc(C(F)(F)F)c(C)c2)cc(-c2cccc(-c3cccc(S(N)(=O)=O)c3)n2)n1 [Example 440, 3-[6′-Methyl-4′-(3-methyl-4-trifluoromethyl-phenyl)-[2,2′]bipyridinyl-6-yl]-benzenesulfonamide] | > 250 °C
8 | Cc1cc(-c2ccc(C#N)cc2)nc(-c2cccc(-c3cccc(S(N)(=O)=O)c3)n2)n1 [Example 442, 3-{6-[4-(4-Cyano-phenyl)-6-methyl-pyrimidin-2-yl]-pyridin-2-yl}-benzenesulfonamide] | 255 °C
9 | CC(=O)NS(=O)(=O)c1cccc(-c2cccc(-c3cc(-c4ccc(C(F)(F)F)cc4)cc(C)n3)n2)c1 [Example 443, N-Acetyl-3-[6′-methyl-4′-(4-trifluoromethyl-phenyl)-[2,2′]bipyridinyl-6-yl]-benzenesulfonamide] | 244 °C
10 | Cc1cc(-c2ccc(C(F)(F)F)cc2)cc(-c2cccc(-c3cccc(S(=O)(=O)NC4CCOCC4)c3)n2)n1 [Example 444, 3-[6′-Methyl-4′-(4-trifluoromethyl-phenyl)-[2,2′]bipyridinyl-6-yl]-N-(tetrahydro-pyran-4-yl)-benzenesulfonamide] | 163 °C (dec.)
11 | CCNS(=O)(=O)c1cccc(-c2cccc(-c3cc(-c4ccc(C(F)(F)F)cc4)cc(C)n3)n2)c1 [Example 446, N-Ethyl-3-[6′-methyl-4′-(4-trifluoromethyl-phenyl)-[2,2′]bipyridinyl-6-yl]-benzenesulfonamide] | 135 °C
12 | NS(=O)(=O)c1cccc(-c2cccc(-c3nc(-c4ccc(C(F)(F)F)c(OCC(F)(F)F)c4)cc(C(F)(F)F)n3)c2)c1 [Example 447, 3′-{4-[3-(2,2,2-Trifluoro-ethoxy)-4-trifluoromethyl-phenyl]-6-trifluoromethyl-pyrimidin-2-yl}-biphenyl-3-sulfonic acid amide] | 188 °C
13 | NS(=O)(=O)c1cccc(-c2cc(-c3nc(-c4ccc(C(F)(F)F)c(OCC(F)(F)F)c4)cc(C(F)(F)F)n3)ccn2)c1 [Example 448, 3-(4-{4-[3-(2,2,2-Trifluoro-ethoxy)-4-trifluoromethyl-phenyl]-6-trifluoromethyl-pyrimidin-2-yl}-pyridin-2-yl)-benzenesulfonamide] | 211 °C
14 | NS(=O)(=O)c1cccc(-c2cc(-c3nc(-c4cccc(C(F)(F)F)c4)cc(C(F)(F)F)n3)ccn2)c1 [Example 449, 3-{4-[4-Trifluoromethyl-6-(3-trifluoromethyl-phenyl)-pyrimidin-2-yl]-pyridin-2-yl}-benzenesulfonamide] | 244 °C
15 | NS(=O)(=O)c1cccc(-c2cc(-c3nc(-c4ccc(C(F)(F)F)cc4F)cc(C(F)(F)F)n3)ccn2)c1 [Example 450, 3-{4-[4-(2-Fluoro-4-trifluoromethyl-phenyl)-6-trifluoromethyl-pyrimidin-2-yl]-pyridin-2-yl}-benzenesulfonamide] | 210 °C
16 | NS(=O)(=O)c1ccc(-c2cc(-c3nc(-c4ccc(C(F)(F)F)cc4F)cc(C(F)(F)F)n3)ccn2)s1 [Example 451, 5-{4-[4-(2-Fluoro-4-trifluoromethyl-phenyl)-6-trifluoromethyl-pyrimidin-2-yl]-pyridin-2-yl}-thiophene-2-sulfonic acid amide] | 228 °C
17 | CCOc1cc(-c2cc(C(F)(F)F)nc(-c3ccnc(-c4ccc(S(N)(=O)=O)s4)c3)n2)ccc1C(F)(F)F [Example 453, 5-{4-[4-(3-Ethoxy-4-trifluoromethyl-phenyl)-6-trifluoromethyl-pyrimidin-2-yl]-pyridin-2-yl}-thiophene-2-sulfonic acid amide] | 237.5 °C
18 | CCCC(=O)NS(=O)(=O)c1cccc(-c2cccc(-c3cc(-c4ccc(C(F)(F)F)cc4)cc(C)n3)n2)c1 [Example 454, N-Butyryl-3-[6′-methyl-4′-(4-trifluoromethyl-phenyl)-[2,2′]bipyridinyl-6-yl]-benzenesulfonamide] | 188 °C
19 | Cc1cc(-c2ccc(C(F)(F)F)cc2)cc(-c2cccc(-c3cccc(S(=O)(=O)NC(=O)C(C)C)c3)n2)n1 [Example 455, N-Isobutyryl-3-[6′-methyl-4′-(4-trifluoromethyl-phenyl)-[2,2′]bipyridinyl-6-yl]-benzenesulfonamide] | 190 °C
20 | NS(=O)(=O)c1cccc(-c2cccc(-c3nc(-c4ccc(C(F)(F)F)cc4)cc(C(F)F)n3)c2)c1 [Example 456, 3′-[4-Difluoromethyl-6-(4-trifluoromethyl-phenyl)-pyrimidin-2-yl]-biphenyl-3-sulfonic acid amide] | 204 °C
21 | NS(=O)(=O)c1cccc(-c2cc(-c3nc(-c4ccc(C(F)(F)F)cc4)cc(C(F)F)n3)ccn2)c1 [Example 457, 3-{4-[4-Difluoromethyl-6-(4-trifluoromethyl-phenyl)-pyrimidin-2-yl]-pyridin-2-yl}-benzenesulfonamide] | 233.5 °C
22 | NS(=O)(=O)c1ccc(-c2cc(-c3nc(-c4ccc(C(F)(F)F)cc4)cc(C(F)F)n3)ccn2)s1 [Example 458, 5-{4-[4-Difluoromethyl-6-(4-trifluoromethyl-phenyl)-pyrimidin-2-yl]-pyridin-2-yl}-thiophene-2-sulfonic acid amide] | 242 °C
23 | NS(=O)(=O)c1ccc(-c2cccc(-c3nc(-c4ccc(C(F)(F)F)cc4)cc(C(F)F)n3)c2)s1 [Example 459, 5-{3-[4-Difluoromethyl-6-(4-trifluoromethyl-phenyl)-pyrimidin-2-yl]-phenyl}-thiophene-2-sulfonic acid amide] | 240.5 °C
